The subject of this assay is μ receptor. In words: Hemi-equilibrium simulation of buprenorphine antagonism of DAMGO. Particulars: chosen to match the experimental DAMGO concentration-response curve.

The text below walks through data of paper PMC12984539 (European journal of pharmacology, 2024).

With `C[C@@H](NC(=O)[C@@H](N)Cc1ccc(O)cc1)C(=O)NCC(=O)N(C)[C@@H](Cc1ccccc1)C(=O)NCCO` [DAMGO, [D-Ala^2, N-MePhe^4, Gly-ol]-enkephalin], the “τ (efficacy of the agonist in the system)” value was 2.3.
